According to patent US4035507A, “Novel, transient pro-drug forms of L-DOPA to treat Parkinson's disease” (Interx Research Corporation, priority 1976, dated 1977):

Legend:
[1] = Blood concentration of L-DOPA following oral administration of L-DOPA or an L-DOPA derivative to Beagle dogs; settings: three Beagle dogs; for L-DOPA at the peak / area under the curve / time for reaching the peak: L-DOPA in blood after oral administration; for [L-DOPA] (μg/ml) at time (hours) 2.0 / [L-DOPA] (μg/ml) at time (hours) 3.0 / [L-DOPA] (μg/ml) at time (hours) 0.5 / [L-DOPA] (μg/ml) at time (hours) 1.0 / [L-DOPA] (μg/ml) at time (hours) 1.5 / [L-DOPA] (μg/ml) at time (hours) 4.0 / [L-DOPA] (μg/ml) at time (hours) 6.0: blood; for [L-DOPA] (μg/ml) at time (hours) 2.0: 2.0 hours after oral administration of 0.1 of L-DOPA or equivalent amount of derivative; for [L-DOPA] (μg/ml) at time (hours) 3.0: 3.0 hours after oral administration of 0.1 of L-DOPA or equivalent amount of derivative; for [L-DOPA] (μg/ml) at time (hours) 0.5: 0.5 hours after oral administration of 0.1 of L-DOPA or equivalent amount of derivative; for [L-DOPA] (μg/ml) at time (hours) 1.0: 1.0 hours after oral administration of 0.1 of L-DOPA or equivalent amount of derivative; for [L-DOPA] (μg/ml) at time (hours) 1.5: 1.5 hours after oral administration of 0.1 of L-DOPA or equivalent amount of derivative; for [L-DOPA] (μg/ml) at time (hours) 4.0: 4.0 hours after oral administration of 0.1 of L-DOPA or equivalent amount of derivative; for [L-DOPA] (μg/ml) at time (hours) 6.0: 6.0 hours after oral administration of 0.1 of L-DOPA or equivalent amount of derivative;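 as to all read-outs here: dogs of both sexes, 12 to 14 Kg body weight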
Excerpt: Reference to (a) refers to the values obtained from three Beagle dogs for each compound tested, the Beagle dogs being of both sexes and weighing from 12 to 14 Kg.
Reference to [L-DOPA] refers to the concentration of L-DOPA

[2] = Coutinaho, Spiegel et al. (1971); Weiss and Rossi (1963); cited from earlier work

Row | Compound | L-DOPA at the peak [1] | [L-DOPA] (μg/ml) at time (hours) 2.0 [1] | [L-DOPA] (μg/ml) at time (hours) 3.0 [1] | area under the curve [1] | time for reaching the peak [1] | [L-DOPA] (μg/ml) at time (hours) 0.5 [1] | [L-DOPA] (μg/ml) at time (hours) 1.0 [1] | [L-DOPA] (μg/ml) at time (hours) 1.5 [1] | [L-DOPA] (μg/ml) at time (hours) 4.0 [1] | [L-DOPA] (μg/ml) at time (hours) 6.0 [1] | half-life of L-DOPA in the bloodstream [2]
1 | COC(=O)[C@@H](N)Cc1ccc(OC(C)=O)c(OC(C)=O)c1.Cl [Compound (I), 3,4-diacetyloxy-L-phenylalanine-methyl ester, HCl] | 1.6 µg/mL | 0.39 µg/mL | 0.12 µg/mL |  |  |  |  |  |  |  | 
2 | CC(=O)Oc1ccc(C[C@H](NC(=O)CN)C(=O)O)cc1OC(C)=O.Cl [Compound (III), glycyl-3,4-diacetyloxy-L-phenylalanine-hydrochloride] | 2.4 µg/mL | 0.43 µg/mL | 0.27 µg/mL | 7.25 µg/h/mL | 0.75 h | 1.34 µg/mL | 1.95 µg/mL | 1.21 µg/mL | 0.13 µg/mL | 0.02 µg/mL | 
3 | N[C@@H](Cc1ccc(O)c(O)c1)C(=O)O [(0), 3,4-dihydroxy-L-phenylalanine, reference compound] | 0.9 µg/mL | 0.87 µg/mL |  | 2.6 µg/h/mL | 1.8 h | 0.14 µg/mL | 0.64 µg/mL |  | 0.22 µg/mL | 0.11 µg/mL | approximately 45 minutes
4 | COC(=O)[C@H](Cc1ccc(OC(C)=O)c(OC(C)=O)c1)NC(=O)CN.Cl [Compound (IV), glycyl-3,4-diacetyloxy-L-phenylalanine-methyl ester hydrochloride] | 1.7 µg/mL | 0.33 µg/mL | 0.08 µg/mL | 3.38 µg/h/mL | 0.80 h | 0.79 µg/mL | 1.17 µg/mL | 0.51 µg/mL | 0.02 µg/mL | 0 µg/mL | 
5 | CC(=O)Oc1ccc(C[C@H](N)C(=O)OCc2ccccc2)cc1OC(C)=O.Cl [Compound (II), 3,4-diacetyloxy-L-phenylalanine-benzyl ester hydrochloride] | 2.3 µg/mL | 0.55 µg/mL | 0.20 µg/mL | 5.96 µg/h/mL | 0.5 h | 1.71 µg/mL | 1.30 µg/mL | 1.08 µg/mL | 0.14 µg/mL | 0.05 µg/mL | 
6 | CC(=O)Oc1ccc(C[C@H](N)C(=O)NCC(=O)O)cc1OC(C)=O.Cl [Compound (V), 3,4-diacetyloxy-L-phenylalanyl-glycine hydrochloride] | 1.8 µg/mL | 0.80 µg/mL | 0.23 µg/mL | 5.30 µg/h/mL | 1.2 h | 0.26 µg/mL | 1.30 µg/mL | 1.62 µg/mL | 0.03 µg/mL | 0 µg/mL | 
